Molecular target: CFTR (Homo sapiens, UniProt P13569)
Experiment: Membrane Potential Dye, Enteroid Assay B
Type: cell-based
Details: for EC50: read-out: Ent. B EC50
Experimental: Base medium (ADF+++) consisted of Advanced DMEM/Ham's F12, 2 mM Glutamax, 10 mM HEPES, 1 µg/mL penicillin/streptomycin.
Intestinal enteroid maintenance medium (IEMM) consisted of ADF+++, 1× B27 supplement, 1× N2 supplement, 1.25 mM N-acetyl cysteine, 10 mM Nicotinamide, 50 ng/mL hEGF, 10 nM Gastrin, 1 pg/mL hR-spondin-1, 100 ng/mL hNoggin, TGF-b type 1 inhibitor A-83-01, 100 μg/mL Primocin, […] P38 MAPK inhibitor SB202190.
Bath 1 Buffer consisted of 1 mM MgCl2, 160 mM NaCl, 4.5 mM KCl, 10 mM HEPES, 10 mM Glucose, 2 mM CaCl2).
Chloride Free Buffer consisted of 1 mM Magnesium Gluconate, 2 mM Calcium Gluconate, 4.5 mM Potassium Gluconate, 160 mM Sodium Gluconate, 10 mM HEPES, 10 mM Glucose.
Bath1 Dye Solution consisted of Bath 1 Buffer, 0.04% Pluronic F127, […] Methyl Oxonol, 30 μM CaCCinh-A01, 30 μM Chicago Sky Blue.
Chloride Free Dye Solution consisted of Chloride Free Buffer, 0.04% Pluronic F127, 20 μM Methyl Oxonol, 30 μM CaCCinh-A01, 30 μM Chicago Sky Blue.
Chloride Free Dye Stimulation Solution consisted of Chloride Free Dye Solution, 10 μM forskolin, 100 μM IBMX, and 300 nM Compound III.
Human intestinal epithelial enteroid cells were obtained from the Hubrecht Institute for Developmental Biology and Stem Cell Research, Utrecht, The Netherlands and expanded in T-Flasks as previously described (Dekkers J F, Wiegerinck C L, de Jonge H R, Bronsveld I, Janssens H M, de Winter-de Groot K M, Brandsma A M, de Jong N W M, Bijvelds M J C, Scholte B J, Nieuwenhuis E E S, van den Brink S, Clevers H, van der Ent C K, Middendorp S and M Beekman J M. A functional CFTR assay using primary cystic fibrosis intestinal organoids. Nat Med. 2013 July; 19(7):939-45.).
Cells were recovered in cell recovery solution, collected by centrifugation at 650 rpm for 5 min at 4° C., resuspended in TryPLE and incubated for 5 min at 37° C. Cells were then collected by centrifugation at 650 rpm for 5 min at 4° C. and resuspended in IEMM containing 10 μM ROCK inhibitor (RI). The cell suspension was passed through a 40 μm cell strainer and resuspended at 1×10^6 cells/mL in IEMM containing 10 μM RI. Cells were seeded at 5000 cells/well into multi-well plates and incubated for overnight at 37° C., 95% humidity and 5% CO2 prior to assay.
Enteroid cells were incubated with test compound in IEMM for 18-24 hours at 37° C., 95% humidity and 5% CO2. […] Briefly, cells were washed 5 times in Bath 1 Buffer. Bath 1 Dye Solution was added and the cells were incubated for 25 min at room temperature. Following dye incubation, cells were washed 3 times in Chloride Free Dye Solution. Chloride transport was initiated by addition of Chloride Free Dye Stimulation Solution and the fluorescence signal was read for 15 min. […] Chloride transport was then expressed as a percentage of the chloride transport following treatment with 1 μM (14S)-8-[3-(2-{Dispiro[2.0.2.1]heptan-7-yl}ethoxy)-1H-pyrazol-1-yl]-12,12-dimethyl-2λ^6-thia-3,9,11,18,23-pentaazatetracyclo[17.3.1.111,14.05,10]tetracosa-1(22),5,7,9,19(23),20-hexaene-2,2,4-trione, 3 μM (R)-1-(2,2-difluorobenzo[d][1,3]dioxol-5-yl)-N-(1-(2,3-dihydroxypropyl)-6-fluoro-2-(1-hydroxy-2-methylpropan-2-yl)-1H-indol-5-yl)cyclopropanecarboxamide and 300 nM acute N-[2,4-bis(1,1-dimethylethyl)-5-hydroxyphenyl]-1,4-dihydro-4-oxoquinoline-3-carboxamide triple combination control (% Activity).

CFTR, sequence (P13569 with tags, fused parts or gaps DEL508-508): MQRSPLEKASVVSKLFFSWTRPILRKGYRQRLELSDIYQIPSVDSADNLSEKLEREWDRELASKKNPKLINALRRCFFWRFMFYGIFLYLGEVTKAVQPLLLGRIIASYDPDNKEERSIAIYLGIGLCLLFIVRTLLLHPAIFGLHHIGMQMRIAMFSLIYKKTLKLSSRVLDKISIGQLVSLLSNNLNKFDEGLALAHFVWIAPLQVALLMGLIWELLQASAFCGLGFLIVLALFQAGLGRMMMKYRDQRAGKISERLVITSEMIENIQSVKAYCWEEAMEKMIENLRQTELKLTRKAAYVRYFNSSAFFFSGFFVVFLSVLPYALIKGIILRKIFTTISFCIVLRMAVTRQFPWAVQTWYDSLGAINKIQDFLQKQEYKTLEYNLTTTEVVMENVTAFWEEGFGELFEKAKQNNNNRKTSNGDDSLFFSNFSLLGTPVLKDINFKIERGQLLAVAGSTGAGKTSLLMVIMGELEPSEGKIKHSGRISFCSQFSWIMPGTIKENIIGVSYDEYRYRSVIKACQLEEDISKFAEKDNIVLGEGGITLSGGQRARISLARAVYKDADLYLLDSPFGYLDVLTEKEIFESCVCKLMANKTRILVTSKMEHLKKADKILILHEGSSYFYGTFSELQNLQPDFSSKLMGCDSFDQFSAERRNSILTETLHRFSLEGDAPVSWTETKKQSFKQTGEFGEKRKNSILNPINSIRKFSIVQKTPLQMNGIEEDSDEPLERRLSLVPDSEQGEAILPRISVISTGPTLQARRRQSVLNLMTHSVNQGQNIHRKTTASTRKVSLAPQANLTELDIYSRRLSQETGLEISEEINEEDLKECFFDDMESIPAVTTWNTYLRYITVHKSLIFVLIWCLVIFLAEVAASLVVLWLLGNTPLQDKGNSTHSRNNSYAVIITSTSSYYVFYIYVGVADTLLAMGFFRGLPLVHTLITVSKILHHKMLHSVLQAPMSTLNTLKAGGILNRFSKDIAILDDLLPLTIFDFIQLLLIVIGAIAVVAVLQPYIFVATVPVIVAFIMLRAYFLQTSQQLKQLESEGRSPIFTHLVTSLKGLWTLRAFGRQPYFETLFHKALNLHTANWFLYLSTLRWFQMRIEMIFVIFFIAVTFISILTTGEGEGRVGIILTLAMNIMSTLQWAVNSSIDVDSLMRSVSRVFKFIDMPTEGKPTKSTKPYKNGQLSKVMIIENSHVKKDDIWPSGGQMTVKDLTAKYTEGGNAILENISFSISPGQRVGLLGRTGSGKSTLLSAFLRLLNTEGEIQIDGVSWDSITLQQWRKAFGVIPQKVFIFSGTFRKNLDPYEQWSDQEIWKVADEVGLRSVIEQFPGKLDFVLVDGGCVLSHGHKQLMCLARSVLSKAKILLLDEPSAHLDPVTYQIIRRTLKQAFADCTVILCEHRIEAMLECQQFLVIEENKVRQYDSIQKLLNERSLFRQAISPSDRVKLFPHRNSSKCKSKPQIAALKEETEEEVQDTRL

Row | Structure (SMILES) | Ent. B Max Activity | EC50
1 | Cc1cccc(C)c1-c1nc2nc(c1C)OC[C@@H](CC(C)(C)C(F)(F)F)N(C1CC3(CCNCC3)C1)C(=O)c1cccc(c1)S(=O)(=O)N2 [Compound 157, (11R)-12-{7-Azaspiro[3.5]nonan-2-yl}-6-(2,6-dimethylphenyl)-7-methyl-11-(3,3,3-trifluoro-2,2-dimethylpropyl)-9-oxa-2λ^6-thia-3,5,12,19-tetraazatricyclo[12.3.1.14,8]nonadeca-1(17),4(19),5,7,14(18),15-hexaene-2,2,13-trione] | +++ (+++ is >60%) | < 1 µM
2 | Cc1cccc(C)c1-c1nc2nc(c1F)OC[C@@H](CC(C)C)N(C1CC3(CCN(C(=O)OC(C)(C)C)CC3)C1)C(=O)c1cccc(c1)S(=O)(=O)N2 [Compound 187] | +++ (+++ is >60%) | < 1 µM
3 | Cc1cccc(C)c1-c1nc2nc(c1C#N)OC[C@@H](CC(C)C)NC(=O)c1cccc(c1)S(=O)(=O)N2 [Compound 169, (11R)-6-(2,6-Dimethylphenyl)-11-isobutyl-2,2,13-trioxo-9-oxa-2λ^6-thia-3,5,12,19-tetrazatricyclo[12.3.1.14,8]nonadeca-1(18),4(19),5,7,14,16-hexaene-7-carbonitrile] | +++ (+++ is >60%) | 3 to 30 µM
4 | Cc1cccc(C)c1-c1nc2nc(c1C)OC[C@@H](CC(C)(C)C)N(C1CC3(CC(CO)C3)C1)C(=O)c1cccc(c1)S(=O)(=O)N2 (stereo in doubt) [Compound 78] | +++ (+++ is >60%) | < 1 µM
5 | Cc1cccc(C)c1-c1nc2nc(c1-c1cnn(CC(C)C)c1)O[C@H](C)CNC(=O)c1cccc(c1)S(=O)(=O)N2 [Compound 127] | +++ (+++ is >60%) | 1 to 3 µM
6 | Cc1cccc(C)c1-c1nc2nc(c1-c1ccccc1)OC[C@@H](C)NC(=O)c1cccc(c1)S(=O)(=O)N2 [Compound 142] | ++ (++ is 30-60%) | < 1 µM
7 | Cc1cccc(C)c1-c1nc2nc(c1F)OC[C@@H](CC(C)C)N(C1CC3(CCNCC3)C1)C(=O)c1cccc(c1)S(=O)(=O)N2 [Compound 186] | ++ (++ is 30-60%) | < 1 µM
8 | Cc1cccc(C)c1-c1nc2nc(c1C)OC[C@@H](CC(C)C)N([C@H]1C[C@@H](OC(C)C)C1)C(=O)c1cccc(c1)S(=O)(=O)N2 (single isomer, unassigned) [Compound 48] | +++ (+++ is >60%) | < 1 µM
9 | Cc1cccc(C)c1-c1nc2nc(c1C)OC[C@@H](CC1(C(F)(F)F)CC1)N(C1CC3(CC(CO)C3)C1)C(=O)c1cccc(c1)S(=O)(=O)N2 (stereo partly drawn) [Compound 80] | +++ (+++ is >60%) | < 1 µM
10 | Cc1cccc(C)c1-c1nc2nc(c1C)O[C@H](C)CNC(=O)c1cccc(c1)S(=O)(=O)N2 [Compound 202] | ++ (++ is 30-60%) | 1 to 3 µM
11 | Cc1cccc(C)c1-c1nc2nc(c1C)OC[C@@H](CC1(C(F)(F)F)CC1)N(C1CC3(CC(N)C3)C1)C(=O)c1cccc(c1)S(=O)(=O)N2 (stereo partly drawn) [Compound 93] | +++ (+++ is >60%) | < 1 µM
12 | Cc1cccc(C)c1-c1nc2nc(c1-c1cccnc1)OC[C@@H](C)NC(=O)c1cccc(c1)S(=O)(=O)N2 [Compound 143] | + (+ is <30%) | –
13 | Cc1cccc(C)c1-c1nc2nc(c1C)O[C@@H]1CN(C3CC4(CCCCC4)C3)C[C@H]1NC(=O)c1cccc(c1)S(=O)(=O)N2 [Compound 104, (3R,7R)-19-(2,6-dimethylphenyl)-20-methyl-5-{spiro[3.5]nonan-2-yl}-2-oxa-15λ^6-thia-5,8,16,18,21-pentaazatetracyclo[15.3.1.110,14.03,7]docosa-1(21),10,12,14(22),17,19-hexaene-9,15,15-trione] | +++ (+++ is >60%) | < 1 µM
14 | COC(=O)NC1CC2(C1)CC(N1C(=O)c3cccc(c3)S(=O)(=O)Nc3nc(c(C)c(-c4c(C)cccc4C)n3)OC[C@H]1CC(C)C)C2 (stereo in doubt) [Compound 68] | +++ (+++ is >60%) | < 1 µM
